In patent publication US20190225650A1, “PEPTIDOMIMETIC MACROCYCLES AND USE THEREOF IN REGULATING HIF1ALPHA” (AILERON THERAPEUTICS, INC., priority 2013, published 2019):
Bridge positions count the residues as written; N and C are the ends. Square brackets hold non-standard residues; d marks the D form. Peptide text beside a SMILES is read from it. R8 = C=CCCCCCC[C@@](C)(N)C(=O)O; S5 = C=CCCC[C@](C)(N)C(=O)O; Nle = CCCC[C@H](N)C(=O)O

Experiments:
[1] = target: T1, flag-tagged HIF1α (AA 786-826) / His6-tagged p300 (AA 323-423) complex (Homo sapiens, UniProt Q09472); test: HIF1α p300 displacement assay (TR FRET, +CHAPS); type: binding; settings: read-out: IC50 (nM) (HIF1α_p300 Displacement + CHAPS)
T1 construct: His6-tagged p300 (AA 323-423); made in house; host or cells: E. coli (pETDuet vector)
Outline: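 In this TR-FRET displacement format, peptides compete HIF1α C-terminal transactivation domain off p300-CH. They were preincubated 1 h at room temperature with 300 nM complex in HEPES pH 7.4/NaCl buffer with 7.5 mM CHAPS and 1 mM DTT. Anti-His-D2 (4 nM) and anti-Flag-K (0.5 μM) followed for 2 h, and a one-site fit of the fluorescence ratio gave IC50.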

HRE-bla ME-180 cells [2] = test: Reporter gene assay (HRE-bla ME-180 HIF reporter, GeneBLAzer); type: cell-based, human; settings: for EC50: 24 hour normoxia
Outline: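 A FRET β-lactamase readout of HIF transcription was used. After compound treatment in 0.3% DMSO/media under normoxic conditions, 20 μl of 6× LiveBLAzer-FRET B/G (CCF4-AM) substrate was added. Plates sat 3 hr at room temperature in the dark and were read at 409 Ex/460Em and 409Ex/530Em on a Synergy 2. Inhibition was compared against DMSO vehicle controls, with chetomin as positive control.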

HRE-bla ME-180 cells [3] = test: Cell proliferation assay (viability, MTT, 1% FBS); type: cell-based, human
Outline: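 Viable cell number was measured with the CellTiter 96 (MTT) kit after compounds were applied for a 16 h normoxic (21% O2) pretreatment, followed by further normoxic or hypoxic (1% O2) culture. Cells: 2×10^4 ME-180 per well, Opti-MEM + 1% FBS, 0.5% DMSO vehicle.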

| IC50 [1] [nM] | EC50 (HRE-bla ME-180 cells [2]) [µM] | Compound | 18 h Avg % max inhibition at top conc (HIF Rptr-24 hrs normoxia) (μM) (HRE-bla ME-180 cells [2]) | Viability 1% FBS AVG (MTT V3-24 hr Normoxia) (μM) (HRE-bla ME-180 cells [3]) |
| --- | --- | --- | --- | --- |
| > 700 | 5 to 15 | CC[C@H](C)[C@H](NC(=O)[C@H](Cc1ccccc1)NC(C)=O)C(=O)N[C@@H](CC(=O)O)C(=O)N[C@@H](CCC(=O)O)C(=O)N[C@@H](CCC(=O)O)C(=O)N[C@H](C(=O)N[C@@H](CC(C)C)C(=O)N[C@@H](CCSC)C(=O)N[C@@]1(C)CCCC=CCCC[C@@](C)(C(=O)N[C@@H](CCSC)C(=O)N[C@@H](C)C(=O)N[C@@H](CC(C)C)C(=O)N[C@@H](CO)C(=O)N[C@@H](CCCNC(=N)N)C(N)=O)NC(=O)[C@H]([C@@H](C)CC)NC(=O)[C@H](C(C)C)NC(=O)[C@H](CC(C)C)NC1=O)C(C)C [SP-287] (Ac-FIDEEVLM[S5]LVI[S5]MALSR-NH2; staple 9-13) | ++++ (≥50: ++++) | ++++ (≥30: ++++) |
| 400 to 700 | 15 to 30 | CCCC[C@H](NC(=O)[C@H](CCC(=O)O)NC(=O)[C@@H](NC(=O)[C@@H](NC(=O)[C@H](CC(C)C)NC(=O)[C@]1(C)CCCC=CCCC[C@](C)(NC(=O)[C@H](CCC(=O)O)NC(=O)[C@H](CC(=O)O)NC(=O)[C@@H](NC(=O)[C@H](Cc2ccccc2)NC(C)=O)[C@@H](C)CC)C(=O)N[C@@H](CC(N)=O)C(=O)N[C@@H](CC(C)C)C(=O)N[C@@H](CCCC)C(=O)N1)C(C)C)[C@@H](C)CC)C(=O)N[C@@H](C)C(=O)N[C@@H](CC(C)C)C(N)=O [SP-141] (Ac-FIDE[S5]NL[Nle][S5]LVIE[Nle]AL-NH2; staple 5-9) | ++++ (≥50: ++++) | ++ (≤5 but <15: ++) |
| > 700 | > 30 | CCCC[C@H](NC(=O)[C@H](CCC(=O)O)NC(=O)[C@]1(C)CCCC=CCCCCCC[C@@](C)(NC(=O)[C@H](CCC(=O)O)NC(=O)[C@H](CC(=O)O)NC(=O)[C@@H](NC(=O)[C@H](CC(N)=O)NC(=O)[C@@H](NC(=O)[C@H](CCC(N)=O)NC(=O)[C@H](CC(=O)O)NC(=O)[C@H](CC(C)C)NC(=O)[C@]2(C)CCCC=CCCC[C@](C)(NC(=O)[C@H](CCC(=O)O)NC(=O)CNC(=O)[C@H](CCC(N)=O)NC(=O)[C@H](CC(C)C)NC(=O)[C@H](CC(C)C)NC(C)=O)C(=O)N[C@@H](CC(C)C)C(=O)N[C@@H](CC(C)C)C(=O)N[C@@H](CCCNC(=N)N)C(=O)N2)C(C)C)[C@@H](C)CC)C(=O)N[C@@H](C(C)C)C(=O)N[C@@H](CC(C)C)C(=O)N[C@@H](CCCC)C(=O)N[C@@H](CO)C(=O)N[C@@H](CC(C)C)C(=O)N[C@@H](C(C)C)C(=O)N1)C(=O)NCC(N)=O [SP-311] (Ac-LLQGE[S5]LLR[S5]LDQVNIDE[R8]VL[Nle]SLV[S5]E[Nle]G-NH2; staple 6-10, 19-26) | ++ (≤10 but <25: ++) | ++++ (≥30: ++++) |
| 400 to 700 | > 30 | CC[C@H](C)[C@H](NC(=O)[C@H](Cc1ccccc1)NC(C)=O)C(=O)N[C@@H](CC(=O)O)C(=O)N[C@@H](CCC(=O)O)C(=O)N[C@@H](CCC(N)=O)C(=O)N[C@H](C(=O)N[C@@H](CC(C)C)C(=O)N[C@@H](CCSC)C(=O)N[C@@]1(C)CCCC=CCCC[C@@](C)(C(=O)N[C@@H](CCSC)C(=O)N[C@@H](C)C(=O)N[C@@H](CC(C)C)C(N)=O)NC(=O)[C@H]([C@@H](C)CC)NC(=O)[C@H](C(C)C)NC(=O)[C@H](CC(C)C)NC1=O)C(C)C [SP-234] (Ac-FIDEQVLM[S5]LVI[S5]MAL-NH2; staple 9-13) | +++ (≤25 but <50: +++) | ++++ (≥30: ++++) |
| > 700 | > 30 | CCCC[C@H](NC(=O)[C@H](Cc1ccccc1)NC(=O)[C@@H](NC(=O)[C@H](C)NC(=O)[C@H](CCC(=O)O)NC(=O)[C@H](CC(=O)O)NC(=O)[C@@H](NC(=O)[C@H](Cc1ccccc1)NC(C)=O)[C@@H](C)CC)C(C)C)C(=O)N[C@@]1(C)CCCC=CCCC[C@@](C)(C(=O)N[C@@H](CCCC)C(=O)N[C@@H](C)C(=O)N[C@@H](CC(C)C)C(=O)N[C@@H](CC(C)C)C(N)=O)NC(=O)[C@H]([C@@H](C)CC)NC(=O)[C@H](C(C)C)NC(=O)[C@H](CC(C)C)NC1=O [SP-249] (Ac-FIDEAVF[Nle][S5]LVI[S5][Nle]ALL-NH2; staple 9-13) | + (<10: +) | ++++ (≥30: ++++) |
| 200 to 400 | > 30 | CC[C@H](C)[C@H](NC(=O)[C@H](CC(N)=O)NC(=O)[C@@H](NC(=O)[C@H](CCC(N)=O)NC(=O)[C@H](CC(=O)O)NC(=O)[C@H](CC(C)C)NC(=O)[C@H](C)NC(=O)[C@H](CCCNC(=N)N)NC(=O)[C@H](CC(C)C)NC(=O)[C@H](CC(C)C)NC(=O)[C@H](CCC(=O)O)NC(=O)[C@H](CCC(=O)O)NC(=O)CNC(=O)[C@H](CCC(N)=O)NC(=O)[C@H](CC(C)C)NC(=O)[C@H](CC(C)C)NC(C)=O)C(C)C)C(=O)N[C@@H](CC(=O)O)C(=O)N[C@@H](CCC(=O)O)C(=O)N[C@]1(C)CCCCCCC=CCCC[C@@](C)(C(=O)N[C@@H](CCC(=O)O)C(=O)N[C@@H](CCSC)C(N)=O)NC(=O)[C@H](C(C)C)NC(=O)[C@H](CC(C)C)NC(=O)[C@H](CO)NC(=O)[C@H](CCSC)NC(=O)[C@H](CC(C)C)NC(=O)[C@H](C(C)C)NC1=O [SP-320] (Ac-LLQGEELLRALDQVNIDE[R8]VLMSLV[S5]EM-NH2; staple 19-26) | + (<10: +) | ++++ (≥30: ++++) |
| ≤ 200 | > 30 | CCCC[C@@H]1NC(=O)[C@H](CC(C)C)NC(=O)[C@](C)(NC(=O)[C@H](CCC(=O)O)NC(=O)[C@H](CCC(=O)O)NC(=O)[C@H](CC(=O)O)NC(=O)[C@@H](NC(=O)[C@H](CC(N)=O)NC(=O)[C@@H](NC(=O)[C@]2(C)CCCC=CCCCCCC[C@@](C)(NC(=O)[C@H](CCC(=O)O)NC(=O)CNC(=O)[C@H](CCC(N)=O)NC(=O)[C@H](CC(C)C)NC(=O)[C@H](CC(C)C)NC(C)=O)C(=O)N[C@@H](CC(C)C)C(=O)N[C@@H](CC(C)C)C(=O)N[C@@H](CCCNC(=N)N)C(=O)N[C@@H](C)C(=O)N[C@@H](CC(C)C)C(=O)N[C@@H](CC(=O)O)C(=O)N2)C(C)C)[C@@H](C)CC)CCCCCCC=CCCC[C@@](C)(C(=O)N[C@@H](CCCC)C(=O)NCC(N)=O)NC(=O)[C@H]([C@@H](C)CC)NC(=O)[C@H](C(C)C)NC(=O)[C@H](CC(C)C)NC(=O)[C@H](CO)NC1=O [SP-332] (Ac-LLQGE[R8]LLRALD[S5]VNIDEE[R8]L[Nle]SLVI[S5][Nle]G-NH2; staple 6-13, 20-27) | + (<10: +) | ++++ (≥30: ++++) |
| ≤ 200 | > 30 | CCCC[C@H](NC(=O)[C@]1(C)CCCC=CCCC[C@](C)(NC(=O)[C@H](CCCC)NC(=O)[C@H](CC(C)C)NC(=O)[C@@H](NC(=O)[C@H](CCC(=O)O)NC(=O)[C@H](C)NC(=O)[C@H](CC(=O)O)NC(=O)[C@@H](NC(=O)[C@H](CC(N)=O)NC(=O)[C@@H](NC(=O)[C@]2(C)CCCC=CCCCCCC[C@@](C)(NC(=O)[C@H](CCC(=O)O)NC(=O)CNC(=O)[C@H](CCC(N)=O)NC(=O)[C@H](CC(C)C)NC(=O)[C@H](CC(C)C)NC(C)=O)C(=O)N[C@@H](CC(C)C)C(=O)N[C@@H](CC(C)C)C(=O)N[C@@H](CCCNC(=N)N)C(=O)N[C@@H](C)C(=O)N[C@@H](CC(C)C)C(=O)N[C@@H](CC(=O)O)C(=O)N2)C(C)C)[C@@H](C)CC)C(C)C)C(=O)N[C@@H](CC(C)C)C(=O)N[C@@H](C(C)C)C(=O)N[C@@H]([C@@H](C)CC)C(=O)N1)C(N)=O [SP-346] (Ac-LLQGE[R8]LLRALD[S5]VNIDAEVL[Nle][S5]LVI[S5][Nle]-NH2; staple 6-13, 23-27) | ++ (≤10 but <25: ++) | ++++ (≥30: ++++) |
| > 700 | 5 to 15 | CCCC[C@H](NC(=O)[C@H](CCC(=O)O)NC(=O)[C@]1(C)CCCC=CCCCCCC[C@@](C)(NC(=O)[C@H](CCC(=O)O)NC(=O)[C@H](C)NC(=O)[C@@H](NC(=O)[C@H](Cc2ccccc2)NC(C)=O)[C@@H](C)CC)C(=O)N[C@@H](C(C)C)C(=O)N[C@@H](CC(C)C)C(=O)N[C@@H](CCCC)C(=O)N[C@@H](CO)C(=O)N[C@@H](CC(C)C)C(=O)N[C@@H](C(C)C)C(=O)N1)C(=O)N[C@@H](C)C(=O)N[C@@H](CC(C)C)C(N)=O [SP-197] (Ac-FIAE[R8]VL[Nle]SLV[S5]E[Nle]AL-NH2; staple 5-12) | ++++ (≥50: ++++) | ++++ (≥30: ++++) |
| > 700 | > 30 | CC[C@H](C)[C@H](NC(=O)[C@H](Cc1ccccc1)NC(C)=O)C(=O)N[C@@H](CC(=O)O)C(=O)N[C@@H](CCC(=O)O)C(=O)N[C@@]1(C)CCCC=CCCC[C@@](C)(C(=O)N[C@@H](CC(C)C)C(=O)N[C@H](C(=O)N[C@H](C(=O)N[C@@H](CCC(=O)O)C(=O)N[C@@H](CCSC)C(=O)N[C@@H](C)C(=O)N[C@@H](C)C(N)=O)[C@@H](C)CC)C(C)C)NC(=O)[C@H](CCSC)NC(=O)[C@H](CC(C)C)NC(=O)[C@H](C(C)C)NC1=O [SP-116] (Ac-FIDE[S5]VLM[S5]LVIEMAA-NH2; staple 5-9) | +++ (≤25 but <50: +++) | ++++ (≥30: ++++) |
